Source: ChEMBL document CHEMBL1151345, “Isolation of a new potential antitumor compound from Wedelia asperrima” (J Nat Prod, 1980)
Activity calls are given as the source filed them. The calls are words filed in the database; no cut-off is given here.

Tests used:
Rattus norvegicus [1] = species on record: Rattus norvegicus; assay: Antitumor activity against aflatoxin B1-induced tumor in Wistar rat at 30 ug for 8 weeks; format: functional, organism-based
Rattus norvegicus [2] = species on record: Rattus norvegicus; assay: Toxicity in Wistar rat; format: organism-based; settings: in vivo
Mus musculus = assay: Toxicity in ip dosed mouse; format: organism-based; settings: in vivo

SMILES | Activity (Rattus norvegicus [1]) | LD100 (Rattus norvegicus [2]) [mg/kg] | LD100 (Mus musculus) [mg/kg]
C=C1[C@H](O)[C@]23CC[C@H]4C(C(=O)O)(C(=O)O)C[C@@H](O[C@@H]5O[C@H](CO)[C@@H](O)[C@H](OC(=O)CCc6ccccc6)[C@H]5NC(=O)CC(C)C)C[C@]4(C)[C@H]2CC[C@@]1(O)C3 [WEDELOSIDE] | Active | 1 | 1
C=C1[C@H](O)[C@]23CC[C@H]4C(C(=O)O)(C(=O)O)C[C@@H](O[C@@H]5O[C@H](CO)[C@@H](O[C@@H]6O[C@@H](C)[C@H](O)[C@@H](O)[C@H]6O)[C@H](OC(=O)CCc6ccccc6)[C@H]5NC(=O)CC(C)C)C[C@]4(C)[C@H]2CC[C@@]1(O)C3 |  | 1 | 1
